From US20250312504A1, “VOLATILE COMPOSITION […] FOR COMPOSITIONS COMPRISING A META-(C1-C4 ALKOXY) […]” (The Procter & Gamble Company, priority 2024, published 2025)

Experiments:
Type in all cases: physicochemical
[1] = Electronic air freshener device test of DPM solutions (crystallization, weight loss); conditions: for crystal formation in air freshener device over time: 2, 5 and 10 wt. % solutions in DPM, plugged-in device, inspected daily for 4 weeks
Method: Each solution (24 mL) was added to a P&G electronic air freshener device and plugged in to a standard 120v outlet. The devices were inspected and weighed daily for 4 weeks. The mass of each device was no longer recorded after the device stopped losing weight.
FIGS. 3-5 show the % weight loss of each solution in the P&G electronic air freshener device.

[2] = Headspace Method, air/solvent partition out of isopropyl myristate (IPM); conditions: relative to ethylvanillin
Method: (§1) Perfume headspace data is collected for various materials according to the method provided below.
(§2) The partition coefficients are calculated by determining the amount of PRM in the headspace above a solution with a known concentration using a GC/FID-MS (Agilent 7890 and 5977A MSD) with a thermal desorption unit (Gerstel MPS2) and Dynamic Headspace Sampler (Gerstel DHS). This technique allows for automated headspace collections using the MultiPurposeSampler (MPS). The PRMs of interest are prepared at a known concentration in isopropyl myristate (IPM) or dipropylene glycol methyl ether (DPM), and 1 mL is pipetted in a 20 mL headspace vial. […]
(§3) Analytical standards can be obtained from Sigma Aldrich, St. Louis, MO and BioSynth, UK. A stock solution is prepared at approximately 0.5 g/L. The stock solution is then diluted to 4 to 5 concentrations ranging from approximately 0.05 g/L to 0.00005 g/L. These standard solutions are then analyzed by GC/MS. […]
(§4) Quantification of the headspace is performed by the PRM target m/z area response of the perfume component and the linear equation of the calibration plot.
(§5) Perfume headspace data is collected for various materials according to the Headspace Method provided above in the Test Methods section. The Air/Solvent partition coefficients are determined and indexed accordingly (e.g., where the partition coefficient for ethylvanillin is set at 1.00).

[3] = Headspace Method, air/solvent partition out of dipropylene glycol methyl ether (DPM); conditions: relative to ethylvanillin
Method: as §1, §2, §3, §4, §5

Row | crystal formation in air freshener device over time [1] | goes into the headspace more than ethylvanillin out of IPM [2] | goes into the headspace more than ethylvanillin out of DPM [3] | SMILES | weight loss rate of solution in air freshener device ([1]; 2, 5 and 10 wt. % in DPM, most noticeable in the 5% and 10% solutions)
1 | crystals were seen to form | – | – | COc1cc(C=O)ccc1O [Vanillin, reference compound] | –
2 | no crystals formed | about 6.2 × | about 94 × | CCOc1cccc(C=O)c1O [ortho-Ethylvanillin, 2-hydroxy-3-ethoxybenzaldehyde] | steeper weight loss rate than the EV and V solutions

Row | SMILES | crystal formation in air freshener device over time [1] | goes into the headspace more than ethylvanillin out of IPM [2] | goes into the headspace more than ethylvanillin out of DPM [3] | weight loss rate of solution in air freshener device ([1]; 2, 5 and 10 wt. % in DPM, most noticeable in the 5% and 10% solutions)
3 | CCOc1cc(C=O)ccc1O [Ethylvanillin, reference compound] | crystals were seen to form | – | – | –
